Measurements taken from PMC8607231, “Generation of KS-133 as a Novel Bicyclic Peptide with a Potent and Selective VIPR2 Antagonist Activity that Counteracts Cognitive Decline in a Mouse Model of Psychiatric Disorders” (Frontiers in Pharmacology, 2021).
Where a SMILES comes first, the peptide text is derived from it. Bridges are numbered along the chain shown (N, C = ends).

What was measured:
[1] = Plasma and brain levels after intravenous administration; assay type: in vivo; conditions: mouse
Source text: Generally, drug discovery to target molecules in the CNS is harder than in peripheral tissues. Molecule exchange between the periphery and CNS is strictly restricted by the blood−brain barrier (BBB), especially molecules with a molecular weight (MW) of >400 g/mol. In addition to the MW limit, CNS drugs need to have high lipophilicity to cross the BBB ([McMartin et al., 1987]; [Dong, 2018]), but high lipophilic small molecules likely have undesirable side effects by potential off-target binding. Conversely, the MW of KS-133 was 1558 g/mol, which would avoid off-target side effects by VIPR2-selective binding but would make it difficult to cross the BBB. […] However, it was unclear whether the alterations in CREB phosphorylation were due to directly effects of s.c. injection of Ro 25-1553 and KS-133 on VIPR2 in the CNS. […] Intranasal administration is an attractive route for drug delivery to the brain because it allows direct transport of drugs from the nasal cavity to the brain parenchyma by bypassing systemic circulation ([Thorne et al., 2004]; [Lochhead and Thorne, 2012]; [Iwasaki et al., 2019]). It has been reported that about 1% of an administered molecule enters the CNS without crossing the BBB by administration to the nasal cavity, even those with a MW of 1000 g/mol ([McMartin et al., 1987]; [Dong, 2018]). There are some reports that the BBB becomes leaky in patients with psychiatric disorders such as schizophrenia and ASD ([Patel and Frey, 2015]; [Najjar et al., 2017]; [Kealy et al., 2020]). […] In the future, to clarify the mechanism and routes of how administered KS-133 targets the CNS, detailed pharmacokinetic studies of KS-133 in healthy mice and disease model mice using s.c., i.n., and intravenous administrations will be needed.

[2] = system: prefrontal pyramidal neurons; experiment: Golgi-Cox dendritic morphology and Sholl analysis of prefrontal cortex neurons; assay type: in vivo, mouse
Procedure: For behavioral experiments, all litters were randomly divided into Ro 25-1553- and PBS-treated groups. From P1 to P14, mice were injected s.c. once daily with Ro 25-1553 at a dose of 0.07 nmol/g ([Ago et al., 2015]). Mice treated with PBS from P1 to P14 were used as the control. KS-133 or the vehicle was simultaneously injected with Ro 25-1553 or PBS. Animals were weaned at P21 and divided by gender at P28. We used male mice exclusively to minimize any potential variability due to sex-specific effects on behavioral performance. […]
Dendritic morphological analysis was performed on mice after the novel object recognition test and samples were collected within 10 min of dissection. […] Morphologies of apical and basal dendrites were quantified in three dimensions using the Neurolucida neuron tracing system (MBF Bioscience, Williston, VT) with the experimenter blinded to the treatment. […]
FIGURE 6 Alterations in the dendritic morphology of prefrontal pyramidal neurons in mice treated with Ro 25-1553 and KS-133 during the early postnatal period. […] The number of intersections of dendrites with 7.5-μm concentric spheres centered on the soma was measured by Sholl analysis. Results are expressed as the mean ± S.E.M. of 40 neurons from five mice per group. *p < 0.05, **p < 0.01, ***p < 0.001.

- tissue level at time molar at 80 min ([1]; brain, adult male ICR mice, 80 min after intravenous KS-133 1 nmol/g, n = 3, mean ± S.E.M., unpublished data): 0.035 ± 0.005 nmol/g
- Plasma elimination half-life ([1]; in vivo): less than an hour
- level at time molar at 80 min ([1]; plasma, adult male ICR mice, 80 min after intravenous KS-133 1 nmol/g, n = 3, mean ± S.E.M., unpublished data): 2780 ± 80 nM
Compound: CC[C@H](C)[C@H](NC(=O)[C@H](CC(C)C)NC(=O)[C@@H]1CC(=O)NCCCC[C@@H]2NC(=O)[C@@H]3CCCN3C(=O)[C@H](CC(C)C)NC(=O)[C@H](Cc3ccc(O)cc3)NC(=O)[C@@H]3CCCN3C(=O)[C@@H]3CCCN3C(=O)[C@@H](NC(C)=O)CSSC[C@H](NC(=O)[C@H](CC(C)C)NC(=O)[C@H](Cc3ccc(O)cc3)NC2=O)C(=O)N1)C(N)=O [KS-133, Ac-c[Cys-Pro-Pro-Tyr-Leu-Pro-c(Lys-Tyr-Leu-Cys]-Asp)-Leu-Ile-NH2] (Ac-CPPYLPKYLCDLI-NH2; disulfide 1-10; lactam 7-11)
- Effect on Ro 25-1553-induced changes in soma size, branch number and dendrite length ([2]; KS-133 simultaneously with Ro 25-1553, P1-14): counteracted
- Sholl analysis, effect on Ro 25-1553-induced morphological abnormalities of apical and basal dendrites ([2]; KS-133 with Ro 25-1553, prefrontal cortex): prevented the morphological abnormalities
